One compound from patent publication US9708315B2, “1,2,4-triazolo[4,3-a]pyridine compounds and their use as positive allosteric modulators of MGLUR2 receptors” (Janssen Pharmaceutica NV, priority 2013, dated 2017) can be followed below.

For one assay, the target named is T1, human mGlu2 receptor (Homo sapiens, UniProt Q14416).
T1 construct: expressed in transfected cells; host or cells: CHO cells
As to the kind of experiment: [35S]GTPγS binding assay, mGluR2 PAM. It is filed as biochemical. Conditions: in presence of glutamate at EC20; EC50 expressed in M; read-out: GTPγS - hmGluR2 PAM pEC50 (converted). The protocol: [^35S]GTPγS Binding Assay
The [^35S]GTPγS binding assay is a functional membrane-based assay used to study G-protein coupled receptor (GPCR) function whereby incorporation of a non-hydrolysable form of GTP, [^35S]GTPγS (guanosine 5′-triphosphate, labelled with […] ^35S), is measured.
Cells were then collected by scraping in PBS and cell suspension was centrifuged (10 min at 4000 RPM in benchtop centrifuge). Supernatant was discarded and pellet gently resuspended in 50 mM Tris-HCl, pH 7.4 by mixing with a vortex and pipetting up and down. The suspension was centrifuged at 16,000 RPM (Sorvall RC-5C plus rotor SS-34) for 10 minutes and the supernatant discarded. The pellet was homogenized in 5 mM Tris-HCl, pH 7.4 using an ultra-turrax homogenizer and centrifuged again (18,000 RPM, 20 min, 4° C.). The final pellet was resuspended in 50 mM Tris-HCl, pH 7.4 and stored at −80° C. in appropriate aliquots before use. Protein concentration was determined by the Bradford method (Bio-Rad, USA) with bovine serum albumin as standard.
Measurement of mGluR2 positive allosteric modulatory activity of test compounds was performed as follows. Test compounds and glutamate were diluted in assay buffer containing 10 mM HEPES acid, 10 mM HEPES salt, pH 7.4, 100 mM NaCl, 3 mM MgCl2 and 10 μM GDP. Human mGlu2 receptor-containing membranes were thawed on ice and diluted in assay buffer supplemented with 14 μg/ml saponin. Membranes were pre-incubated with compound alone or together with a predefined (˜EC20) concentration of glutamate (PAM assay) for 30 min at 30° C. After addition of [^35S]GTPγS (f c. 0.1 nM), assay mixtures were shaken briefly and further incubated to allow [^35S]GTPγS incorporation on activation (30 minutes, 30° C.). Final assay mixtures contained 7 μg of membrane protein in 10 mM HEPES acid, 10 mM HEPES salt, pH 7.4, 100 mM NaCl, 3 mM MgCl2, 10 μM GDP and 2 μg/ml saponin. […] Filters were washed 6 times with ice-cold 10 mM NaH2PO4/10 mM Na2HPO4, pH 7.4. Filters were then air-dried, and 40 μl of liquid scintillation cocktail (Microscint-O) was added to each well. Membrane-bound radioactivity was counted in a Microplate Scintillation and Luminescence Counter from Perkin Elmer.
The concentration-response curves of representative compounds of the present invention—obtained in the presence of EC20 of mGluR2 agonist glutamate to determine positive allosteric modulation (PAM)—were generated using the Lexis software interface (developed at J&J). Data were calculated as % of the control glutamate response, defined as the maximal response that is generated upon addition of glutamate alone. Sigmoid concentration-response curves plotting these percentages versus the log concentration of the test compound were analyzed using non-linear regression analysis. The concentration producing half-maximal effect is then calculated as EC50.
The pEC50 values below were calculated as the −log EC50, when the EC50 is expressed in M. Emax is defined as relative maximal effect (i.e. maximal % effect relative to the control glutamate response).
All compounds were tested in presence of mGluR2 agonist glutamate at a predetermined EC20 concentration, to determine positive allosteric modulation. pEC50 values were calculated from a concentration-response experiment of at least 8 concentrations.
Background: GTPγS resists hydrolysis and so accumulates on activated G proteins.

The test system of the next assay is male Wiga Wistar rats. As to the kind of experiment: Conditioned avoidance response (CAR) test in rats. The class given is in vivo. Conditions: Rattus norvegicus, PO, suspension in 20% hydroxypropyl-b-cyclodextrin containing 1% polysorbate 80. From the text:
The apparatus consisted of an inner box surrounded by an outer box. The inner box was composed of four walls of transparent, synthetic material (length×width×height: 30×30×30 cm), an open top, and a grid floor made of 15 pairs of iron bars (2 mm diameter; 6 mm inter-bar distance). Odd and even bars were connected with a source of alternative current (1.0 mA; Coulbourn Instruments Solid State Shocker/Distributor), which could be interrupted by a switch. The outer box was composed of the same material (length×width×height: 40×40×36 cm), also with an open top, with a distance of 5 cm between the inner and outer box on all sides. To decrease the amount of environmental stimuli, three walls of the outer box were made non-transparent. The front wall was left transparent to allow the necessary inspection of the animal during the test. The upper edge of the outer and inner box served as a target for the rats on which to jump with fore- and hind-paws, respectively. Avoidance Conditioning and Selection of Animals From their arrival in the laboratory on the experimental day, male Wiga Wistar rats (230±30 g) were housed in individual cages provided with bedding material. […] Experimental Sessions The rats were tested 3 times, i.e. at 60, 90 and 120 min after the injection of test compound or solvent. Latency to avoidance was recorded. […]

A word on the ED50: it is the dose at which the effect has come halfway, by size or by number of responders. A higher ED50 goes with a need for a large dose.

Molecules are shown by their SMILES.

T1 sequence (Q14416 19-872): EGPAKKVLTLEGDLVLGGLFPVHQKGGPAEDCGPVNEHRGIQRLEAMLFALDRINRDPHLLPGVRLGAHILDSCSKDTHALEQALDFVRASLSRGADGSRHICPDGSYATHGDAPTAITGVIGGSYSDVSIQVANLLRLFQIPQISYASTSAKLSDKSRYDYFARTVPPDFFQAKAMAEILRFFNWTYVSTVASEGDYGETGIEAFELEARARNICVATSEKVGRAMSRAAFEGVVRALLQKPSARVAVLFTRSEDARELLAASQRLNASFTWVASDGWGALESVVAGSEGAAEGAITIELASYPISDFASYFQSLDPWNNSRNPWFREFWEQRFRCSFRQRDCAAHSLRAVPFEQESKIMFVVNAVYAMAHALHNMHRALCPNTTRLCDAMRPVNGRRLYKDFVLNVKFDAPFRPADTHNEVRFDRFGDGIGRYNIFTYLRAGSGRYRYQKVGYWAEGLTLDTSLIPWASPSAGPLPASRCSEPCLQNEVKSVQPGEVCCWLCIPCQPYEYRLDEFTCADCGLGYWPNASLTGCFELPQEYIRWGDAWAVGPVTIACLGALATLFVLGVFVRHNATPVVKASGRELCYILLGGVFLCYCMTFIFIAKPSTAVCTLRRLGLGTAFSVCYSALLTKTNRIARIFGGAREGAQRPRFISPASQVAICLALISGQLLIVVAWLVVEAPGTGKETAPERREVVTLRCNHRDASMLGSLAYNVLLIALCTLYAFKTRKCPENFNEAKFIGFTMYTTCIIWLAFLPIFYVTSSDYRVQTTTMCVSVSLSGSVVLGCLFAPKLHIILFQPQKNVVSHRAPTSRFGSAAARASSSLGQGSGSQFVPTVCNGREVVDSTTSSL

As to `C[C@H](Oc1ccc(F)cc1F)c1ccn2c(CC3CC3)nnc2c1C(F)(F)F` [Compound 6, 3-(Cyclopropylmethyl)-7-[(1S)-1-(2,4-difluorophenoxy)ethyl]-8-(trifluoromethyl)[1,2,4]triazolo[4,3-a]pyridine], the EC50 on human mGlu2 receptor was 40.7 nM. This compound also had a 50% effective dose (ED50) in the assay with male Wiga Wistar rats of 8.1 mg/kg.
